Test results reported in article PMC8037182, “Solvothermal Synthesis of Multiple Dihydropyrimidinones at a Time as Inhibitors of Eg5” (Molecules, 2021).

Test system: L929 cell line
Experiment: Cytotoxicity MTS assay, L929 cell line
Format: cell-based
Conditions: for OD490 values, Mean / OD490 values, Well 1 / OD490 values, Well 2 / OD490 values, Well 3: L929 cell line
Method: The positive compounds (IC50 < 100 μM) obtained from the primary Eg5 motor protein ATPase assay were tested for antiproliferative activity in vitro against Caco-2 cell line, Hela cell line, L929 cell line and T24 cell line by performing MTS assay. Cells were introduced into 96-well plates at a density of 1000 cells per well. After 24 h incubation, the cells were exposed with compounds at final concentrations ranging from 0.5 to 100 µM for 24 h. DMSO was used at a final concentration of 0.025% as blank control, monastrol was used as the positive control. Then 20 µL (CellTiter 96® AQueous One Solution Promega, Madison, WI, USA) reagent was added in each well. After 2 h at 37 °C in a 80% humidified, 5% CO2 atmosphere, the absorbance at 490 nm was recorded using a microplate reader (BIO-RAD iMark^TM). The results were obtained in three independent duplicate experiments. The primary data were shown in Supplementary Materials Tables S4–S7. The IC50 values for these compounds were calculated from a non-linear regression graph plotted between the percentage of cell viability and concentration with SPSS17.0 software.

SMILES: COC(=O)c1[nH]c(C2NC(=S)NC(C)=C2C(=O)c2ccccc2)c(C(=O)OC)c1C (stereo not shown) [D14]
- OD490 values, Mean (1μM, first assay): 1.2798
- OD490 values, Well 1 (1μM, first assay): 1.2932
- OD490 values, Well 2 (1μM, first assay): 1.2928
- OD490 values, Well 3 (1μM, first assay): 1.2533
- OD490 values, Mean (1μM, second assay): 1.4907
- OD490 values, Well 1 (1μM, second assay): 1.4325
- OD490 values, Well 2 (1μM, second assay): 1.3987
- OD490 values, Well 3 (1μM, second assay): 1.6410
- OD490 values, Mean (1μM, third assay): 1.6023
- OD490 values, Well 1 (1μM, third assay): 1.5874
- OD490 values, Well 2 (1μM, third assay): 1.6622
- OD490 values, Well 3 (1μM, third assay): 1.5574
- OD490 values, Mean (1.5μM, first assay): 1.2729
- OD490 values, Well 1 (1.5μM, first assay): 1.2563
- OD490 values, Well 2 (1.5μM, first assay): 1.3177
- OD490 values, Well 3 (1.5μM, first assay): 1.2448
- OD490 values, Mean (1.5μM, second assay): 1.4657
- OD490 values, Well 1 (1.5μM, second assay): 1.4258
- OD490 values, Well 2 (1.5μM, second assay): 1.4302
- OD490 values, Well 3 (1.5μM, second assay): 1.5412
- OD490 values, Mean (1.5μM, third assay): 1.5678
- OD490 values, Well 1 (1.5μM, third assay): 1.5254
- OD490 values, Well 2 (1.5μM, third assay): 1.5988
- OD490 values, Well 3 (1.5μM, third assay): 1.5793
- OD490 values, Mean (10μM, first assay): 1.2551
- OD490 values, Well 1 (10μM, first assay): 1.2039
- OD490 values, Well 2 (10μM, first assay): 1.3650
- OD490 values, Well 3 (10μM, first assay): 1.1963
- OD490 values, Mean (10μM, second assay): 1.4237
- OD490 values, Well 1 (10μM, second assay): 1.3365
- OD490 values, Well 2 (10μM, second assay): 1.5325
- OD490 values, Well 3 (10μM, second assay): 1.4022
- OD490 values, Mean (10μM, third assay): 1.5660
- OD490 values, Well 1 (10μM, third assay): 1.5254
- OD490 values, Well 2 (10μM, third assay): 1.6200
- OD490 values, Well 3 (10μM, third assay): 1.5525
- OD490 values, Mean (25μM, first assay): 1.1670
- OD490 values, Well 1 (25μM, first assay): 1.1764
- OD490 values, Well 2 (25μM, first assay): 1.2795
- OD490 values, Well 3 (25μM, first assay): 1.0451
- OD490 values, Mean (25μM, second assay): 1.2993
- OD490 values, Well 1 (25μM, second assay): 1.3065
- OD490 values, Well 2 (25μM, second assay): 1.2547
- OD490 values, Well 3 (25μM, second assay): 1.3366
- OD490 values, Mean (25μM, third assay): 1.5294
- OD490 values, Well 1 (25μM, third assay): 1.4424
- OD490 values, Well 2 (25μM, third assay): 1.5235
- OD490 values, Well 3 (25μM, third assay): 1.6222
- OD490 values, Mean (50μM, first assay): 1.0826
- OD490 values, Well 1 (50μM, first assay): 0.8914
- OD490 values, Well 2 (50μM, first assay): 1.1616
- OD490 values, Well 3 (50μM, first assay): 1.1948
- OD490 values, Mean (50μM, second assay): 1.1536
- OD490 values, Well 1 (50μM, second assay): 1.1241
- OD490 values, Well 2 (50μM, second assay): 1.2101
- OD490 values, Well 3 (50μM, second assay): 1.1265
- OD490 values, Mean (50μM, third assay): 1.3855
- OD490 values, Well 1 (50μM, third assay): 1.3665
- OD490 values, Well 2 (50μM, third assay): 1.3874
- OD490 values, Well 3 (50μM, third assay): 1.4025
- OD490 values, Mean (100μM, first assay): 1.0433
- OD490 values, Well 1 (100μM, first assay): 0.7506
- OD490 values, Well 2 (100μM, first assay): 1.0796
- OD490 values, Well 3 (100μM, first assay): 1.2998
- OD490 values, Mean (100μM, second assay): 1.1143
- OD490 values, Well 1 (100μM, second assay): 1.1121
- OD490 values, Well 2 (100μM, second assay): 1.1285
- OD490 values, Well 3 (100μM, second assay): 1.1022
- OD490 values, Mean (100μM, third assay): 1.3039
- OD490 values, Well 1 (100μM, third assay): 1.3251
- OD490 values, Well 2 (100μM, third assay): 1.3325
- OD490 values, Well 3 (100μM, third assay): 1.2542
- IC50 (MTS assay, 24 h exposure, ordinary fibroblast, not cancer cells): 137 µM
